Measured values published in patent US20200038600A1, “DEVICE AND METHOD FOR DRUG DELIVERY” (Insuline Medical Ltd., priority 2016, published 2020).
Where two headings read alike, the source gives them in different places.

Experiments:
albumin = molecular target: T1, albumin (Homo sapiens, UniProt P02768); conditions: once in the circulation; cited from earlier work
T1 construct: host or cells: endogenous albumin of the bloodstream

[1] = cited from earlier work
Type I diabetes subjects = assay: Effect of heating or cooling the injection site on blood glucose after basal insulin (LANTUS) injection (FIG. 19); assay type: in vivo, human; conditions: for ΔBG_2H, blood glucose excursion change from control / ΔBG_3H, blood glucose excursion change from control / ΔBG_4H, blood glucose excursion change from control: fasting
Excerpt: FIG. 19 is a graph showing results of a study of the effect of applying a treatment (cooling or heating) for regulating the absorption of a drug (insulin) on an analyte level (insulin and/or blood glucose level) over time measured in minutes.
The experiment tests the effect of treatment (e.g. cooling and heating) at the injection site on insulin and glucose blood levels during nine hours following long acting, basal insulin (LANTUS) injection. The tested treatments included heating the skin over the injection site to 40° C. and cooling the skin over the injection site to 20° C. Each subject underwent three procedures during three different days including control, heating and cooling in random order, thus each subject served as his/her own control.
Type I diabetes subjects under fasting conditions injected their usual basal insulin dose which is intended to keep their blood glucose level stable. Two hours after injection a stabilization period commenced in which a subject's blood glucose levels was adjusted to a target blood glucose level using IV insulin or IV glucose administration. The starting glucose level was 150 mg/dl±20 mg/dl. […] In the two testing days the heating or cooling elements were attached to the injection site and heating or cooling was started for a period of four hours and no intervention (besides the treatment, i.e. cooling or heating) was performed during this period. The procedure continued for another two hours without intervention. On the control day no intervention or treatment was applied. During the whole procedure blood samples were collected for blood glucose and insulin concentration measurements every 20 minutes. Safety limits of the study were 75 mg/dl as the low limit, and 250 mg/dl as the high limit. If the subject's blood glucose level was below 75 mg/dl, then a 10% glucose solution was given intravenously to increase the subject's blood glucose level. If the subject's blood glucose level was above 250 mg/dl then IV insulin was given to reduce blood glucose level.

diabetes subjects = assay: Effect of cooling the injection site on blood glucose after basal insulin (LANTUS) injection (FIG. 20); assay type: in vivo, human
Experimental: FIG. 20 is a graph showing results of a study of the effect of applying cooling for regulating the absorption of a drug (insulin) on an analyte level (insulin and/or blood glucose level) over time measured in minutes.
The diabetes subjects under fasting conditions injected their usual basal insulin dose (LANTUS) which is intended to keep their blood glucose level stable. […] Cooling commenced at 2 hours and was applied for 3 hours successfully raising he blood glucose level back to 142 mg/dl.

T1 sequence (P02768 25-609): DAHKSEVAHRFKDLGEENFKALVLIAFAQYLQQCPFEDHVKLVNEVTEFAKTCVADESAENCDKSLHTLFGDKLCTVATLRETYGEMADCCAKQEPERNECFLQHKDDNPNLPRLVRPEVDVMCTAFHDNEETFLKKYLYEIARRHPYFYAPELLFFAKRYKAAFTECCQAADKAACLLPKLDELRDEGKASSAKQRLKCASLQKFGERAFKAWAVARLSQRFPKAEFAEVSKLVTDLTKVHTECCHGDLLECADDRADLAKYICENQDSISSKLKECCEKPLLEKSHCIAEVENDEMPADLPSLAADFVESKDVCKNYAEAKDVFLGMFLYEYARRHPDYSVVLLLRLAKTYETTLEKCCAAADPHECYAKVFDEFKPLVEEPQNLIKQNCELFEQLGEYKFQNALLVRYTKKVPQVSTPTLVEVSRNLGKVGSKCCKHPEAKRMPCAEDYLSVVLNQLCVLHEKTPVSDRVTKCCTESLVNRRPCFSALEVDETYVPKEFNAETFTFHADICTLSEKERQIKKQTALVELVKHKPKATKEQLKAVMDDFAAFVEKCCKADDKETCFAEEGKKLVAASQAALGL

Substance: insulin detemir
- albumin bound (albumin): 98%

Substance: insulin glargine [LANTUS]
- solubility ([1]; neutral pH (pH 7.4)): forms precipitates
- solubility ([1]; pH 4): soluble
- increase in blood glucose levels (Type I diabetes subjects; applying cooling to the injection site (text b295)): 25 mg/dL
- average decrease in blood glucose compared to no treatment at all (Type I diabetes subjects; applying heat to the injection site (text b295)): 40 mg/dL
- ΔBG_2H, blood glucose excursion change from control (Type I diabetes subjects; cooling skin over injection site to 20° C., after 2 hours): +30 mg/dl
- ΔBG_3H, blood glucose excursion change from control (Type I diabetes subjects; cooling skin over injection site to 20° C., after 3 hours): +42 mg/dl
- ΔBG_4H, blood glucose excursion change from control (Type I diabetes subjects; cooling skin over injection site to 20° C., after 4 hours): +50 mg/dl
- blood glucose levels over time (FIG. 19) (Type I diabetes subjects; cooling the injection site): increased
- increase in blood glucose compared to no intervention (Type I diabetes subjects; cooling the injection site, after 2 hours): about 42 mg/dl
- increase in blood glucose compared to no intervention (Type I diabetes subjects; cooling the injection site, after 3 hours): ~59 mg/dL
- increase in blood glucose compared to no intervention (Type I diabetes subjects; cooling the injection site, after 4 hours): ~65 mg/dL
- ΔBG_2H, blood glucose excursion change from control (Type I diabetes subjects; heating skin over injection site to 40° C., after 2 hours): -29 mg/dL
- ΔBG_3H, blood glucose excursion change from control (Type I diabetes subjects; heating skin over injection site to 40° C., after 3 hours): -32 mg/dL
- ΔBG_4H, blood glucose excursion change from control (Type I diabetes subjects; heating skin over injection site to 40° C., after 4 hours): -32 mg/dL
- blood glucose levels over time (FIG. 19) (Type I diabetes subjects; heating the injection site): decreased
- average decrease in blood glucose compared to no intervention (Type I diabetes subjects; heating the injection site, after 2 hours): 15 mg/dL
- average decrease in blood glucose compared to no intervention (Type I diabetes subjects; heating the injection site, after 3 hours): 21 mg/dL
- average decrease in blood glucose compared to no intervention (Type I diabetes subjects; heating the injection site, after 4 hours): 26 mg/dL
- blood glucose levels over time (FIG. 19) (Type I diabetes subjects; no intervention applied to the injection site): stable around the base line
- blood glucose level (diabetes subjects; after cooling applied for 3 hours, commenced at 2 hours): 142 mg/dL
- initial blood glucose level (diabetes subjects; at injection, fasting): 143 mg/dL
- blood glucose level (diabetes subjects; within 2 hours after injection, before cooling): 94 mg/dL
